Measurements published in patent US4244956A, “Method of treating inflammation” (Forsyth Dental Infirmary for Children, priority 1979, dated 1981).

What was measured:
[1] = target: T1, prostaglandin synthetase (Ovis aries, UniProt P05979); test: Inhibition of prostaglandin synthesis, sheep vesicular gland microsomal preparation, oxygen electrode; assay type: biochemical; conditions: sheep vesicular gland microsomes, pH 8.0, inhibitor added 1 minute before arachidonate; oxygen uptake; read-out: [I]50 Values for Inhibition of Prostaglandin Synthesis
T1 construct: sheep vesicular gland microsomal preparation; from tissue; host or cells: sheep vesicular gland microsomes
T1 sequence (P05979 25-600): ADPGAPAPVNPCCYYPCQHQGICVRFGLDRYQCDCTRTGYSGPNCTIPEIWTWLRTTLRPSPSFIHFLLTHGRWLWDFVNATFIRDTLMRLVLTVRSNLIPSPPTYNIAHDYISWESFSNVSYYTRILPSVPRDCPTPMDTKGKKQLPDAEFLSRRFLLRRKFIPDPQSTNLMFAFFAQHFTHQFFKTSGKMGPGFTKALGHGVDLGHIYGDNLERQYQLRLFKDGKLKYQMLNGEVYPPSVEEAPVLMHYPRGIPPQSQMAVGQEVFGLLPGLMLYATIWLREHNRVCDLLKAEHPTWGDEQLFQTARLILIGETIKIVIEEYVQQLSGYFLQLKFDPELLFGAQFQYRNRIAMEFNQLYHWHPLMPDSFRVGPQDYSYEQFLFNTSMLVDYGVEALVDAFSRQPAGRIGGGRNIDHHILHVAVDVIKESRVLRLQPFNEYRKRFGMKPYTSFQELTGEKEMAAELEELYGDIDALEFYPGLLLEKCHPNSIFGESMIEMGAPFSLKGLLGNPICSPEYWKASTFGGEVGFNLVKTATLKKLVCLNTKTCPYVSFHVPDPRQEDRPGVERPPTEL
Description: A commonly used model system for examination of prostaglandin synthetase inhibition is the sheep vesicular gland microsomal preparation (Wallach, D. P. and Daniels, E. G., Biochim. Biophys. Acta., 231: 445-457 (1971)). Prostaglandin synthetase activity was determined by following oxygen tension in a closed reaction chamber using a Clark-type oxygen electrode. For each assay, 2.9 ml of 0.1 M tris HCl buffer, pH 8.0, 10 ul of 0.2 M phenol, and 50 ul of enzyme suspension (2.5 mg microsomal preparation) were added to the reaction chamber. 10 ul of inhibitor in ethanol were added 1 minute prior to initiation of the reaction. The reaction was initiated by addition of 10 ul of 3.7 mM arachidonate solution. The concentration of an inhibitor that reduced prostaglandin synthesis by 50% ([I]50) was determined from plots of activity v. log concentration of inhibitor.

[2] = test system: platelet aggregation; test: Inhibition of arachidonate-induced platelet aggregation in platelet-rich plasma (aggregometer); assay type: cell-based; conditions: 37° C, 50 ul of 10 mM arachidonate, read-out: [I]50, concentration of inhibitor which prevented irreversible aggregation 50% of the time
Description: Inhibition of platelet aggregation by prostaglandin synthetase inhibitors is of potential value in treating thromboembolic disorders. Aggregation experiments were performed in a single-channel Chrono-log Platelet Aggregometer at 37° C. To 500 ul of platelet-rich plasm were added 2 ul of inhibitor solution and 50 ul of 10 mM arachidonate. The [I]50 value was defined as the concentration of inhibitor which prevented irreversible aggregation 50% of the time. The [I]50 of 2-(phenylmethoxy)phenol was 0.57 uM.

| IC50 [1] [µM] | IC50 [2] [µM] | SMILES |
| --- | --- | --- |
| 3.3 |  | Oc1ccccc1OCc1cccc(Cl)c1 [2-(3-chlorophenylmeythoxy)phenol, 2-(3-chlorophenylmethoxy)phenol] |
| 5.2 | 0.57 | Oc1ccccc1OCc1ccccc1 [2-(phenylmethoxy)phenol] |
| 4.7 |  | Cc1ccccc1COc1ccccc1O [2-(2-methylphenylmethoxy)phenol] |
